Laboratory results: US20040023295A1, “Methods and systems for analyzing complex biological systems” (priority 2001, published 2004)

Test system: Saccharomyces cerevisiae wild type strain BY4743
Experiment: Yeast azole drug experiment AF1: metabolite analysis (GC-MS, LC-MS)
Type: cell-based

## C[C@@H]1[C@H](O)[C@@H](C)/C=C/C=C/C=C/C=C/C=C/C=C/C=C/[C@H](O[C@@H]2O[C@H](C)[C@@H](O)[C@H](N)[C@@H]2O)C[C@@H]2O[C@](O)(C[C@@H](O)C[C@@H](O)[C@H](O)CC[C@@H](O)C[C@@H](O)CC(=O)O[C@H]1C)C[C@H](O)[C@H]2C(=O)O [Amphoteracin B]
Platform nLC, p-Value 1
  Fold Change of metabolite 5hydroxyL-tryptophan: 0
  Fold Change of metabolite 6-benzylaminopurine: 0
  Fold Change of metabolite NacetylD-glucosamine: 0
  Fold Change of metabolite NacetylL-ornithine: 0
  Fold Change of metabolite abscisic acid: 0
  Fold Change of metabolite adenine: 0
  Fold Change of metabolite adenosine: 0
  Fold Change of metabolite anthranilic acid: 0
  Fold Change of metabolite argininosuccinate: 0
  Fold Change of metabolite benzoic acid: 0
  Fold Change of metabolite catechol: 0
  Fold Change of metabolite cinnamic acid: 0
  Fold Change of metabolite citricanoic/itaconi: 0
  Fold Change of metabolite coumaric acid: 0
  Fold Change of metabolite cytosine: 0
  Fold Change of metabolite diaminopimelic acid: 0
  Fold Change of metabolite dihydrofolic acid: 0
  Fold Change of metabolite estrone: 0
  Fold Change of metabolite farnesol: 0
  Fold Change of metabolite folic acid: 0
  Fold Change of metabolite gibberellic: 0
  Fold Change of metabolite guanine: 0
  Fold Change of metabolite histidine: 0
  Fold Change of metabolite homogentisic/uric: 0
  Fold Change of metabolite hydrocortisone: 0
  Fold Change of metabolite indole3-pyruvic acid: 0
  Fold Change of metabolite jasmonic acid: 0
  Fold Change of metabolite luteolin: 0
  Fold Change of metabolite malonic acid: 0
  Fold Change of metabolite methionine: 0
  Fold Change of metabolite phenylpyruvic acid: 0
  Fold Change of metabolite phosphoenolpyruvate: 0
  Fold Change of metabolite pinitol: 0
  Fold Change of metabolite porphobilinogen: 0
  Fold Change of metabolite retinoic acid: 0
  Fold Change of metabolite salicylic/HObenzoic: 0
  Fold Change of metabolite shikimic acid: 0
  Fold Change of metabolite sinapinic acid: 0
  Fold Change of metabolite thymine: 0
Platform pLC, p-Value 0.229215472
  Fold Change of metabolite DL-aminoadipic acid: 0.4703
Platform pLC, p-Value 0.251617022
  Fold Change of metabolite mevalonic lactone: −0.4606
Platform pLC, p-Value 0.367502423
  Fold Change of metabolite methionine: 0.3299
Platform pLC, p-Value 0.392871315
  Fold Change of metabolite NacetylL-ornithine: 1.319
Platform pLC, p-Value 0.433366283
  Fold Change of metabolite citrulline: 1.798
Platform pLC, p-Value 0.474762121
  Fold Change of metabolite proline: 0.6707
Platform pLC, p-Value 0.48461244
  Fold Change of metabolite ornithine: 0.5049
Platform pLC, p-Value 0.522893347
  Fold Change of metabolite arginine: 0.4662
Platform pLC, p-Value 0.526485859
  Fold Change of metabolite asparagine: 0.6344
Platform pLC, p-Value 0.540255177
  Fold Change of metabolite alanine/sarcosine: 0.2602
Platform pLC, p-Value 0.556385814
  Fold Change of metabolite pipecolic acid: 0.5237
Platform pLC, p-Value 0.563874982
  Fold Change of metabolite glutamate: 0.4341
Platform pLC, p-Value 0.573569375
  Fold Change of metabolite phenylalanine: 0.4036
Platform pLC, p-Value 0.575742486
  Fold Change of metabolite mannitol: 0.4543
Platform pLC, p-Value 0.618892728
  Fold Change of metabolite glutamine/lysine: 0.3981
Platform pLC, p-Value 0.626001257
  Fold Change of metabolite aspartic acid: 0.3594
Platform pLC, p-Value 0.668114613
  Fold Change of metabolite threonine/homoserin: 0.3145
Platform pLC, p-Value 0.716422123
  Fold Change of metabolite serine: 0.2011
Platform pLC, p-Value 0.723852356
  Fold Change of metabolite leucine/isoleucine/: 0.2746
Platform pLC, p-Value 0.74082632
  Fold Change of metabolite hypoxanthine: 0.2057
Platform pLC, p-Value 0.776529987
  Fold Change of metabolite pyridoxine: −0.1684
Platform pLC, p-Value 0.886514477
  Fold Change of metabolite guanosine: 0.7598
Platform pLC, p-Value 0.888275646
  Fold Change of metabolite selenoDL-methionine: 1.178
Platform pLC, p-Value 0.892253251
  Fold Change of metabolite adenine: 0.1153
Platform pLC, p-Value 0.920009792
  Fold Change of metabolite 4ambutyrate/dimglyc: 0.01279
Platform pLC, p-Value 0.951676383
  Fold Change of metabolite glutathione: −0.03348
Platform pLC, p-Value 1
  Fold Change of metabolite 4-aminobenzoic acid: 0
  Fold Change of metabolite 4-methylcatechol: 0
  Fold Change of metabolite 5hydroxyL-tryptophan: 0
  Fold Change of metabolite 6benzylaminopurine: 0
  Fold Change of metabolite NacetylD-glucosamine: 0
  Fold Change of metabolite NacetylL-glutamate: 0
  Fold Change of metabolite abscisic acid: 0
  Fold Change of metabolite adenosine: 0
  Fold Change of metabolite allantoic acid: 0
  Fold Change of metabolite anthranilic acid: 0
  Fold Change of metabolite argininosuccinate: 0
  Fold Change of metabolite biotin: 0
  Fold Change of metabolite caffeine: 0
  Fold Change of metabolite citric acid TME: 0
  Fold Change of metabolite cytidine: 0
  Fold Change of metabolite cytosine: 0
  Fold Change of metabolite diaminopimelic acid: 0
  Fold Change of metabolite dihydrofolic acid: 0
  Fold Change of metabolite dipicolinic acid: 0
  Fold Change of metabolite folic acid: 0
  Fold Change of metabolite glucosamine: 0
  Fold Change of metabolite glucosamine6PO4: 0
  Fold Change of metabolite histidine: 0
  Fold Change of metabolite hydrocortisone: 0
  Fold Change of metabolite itaconic acid dimes: 0
  Fold Change of metabolite luteolin: 0
  Fold Change of metabolite niacinamide: 0
  Fold Change of metabolite nopaline: 0
  Fold Change of metabolite phosphoenolpyruvate: 0
  Fold Change of metabolite progesterone: 0
  Fold Change of metabolite riboflavin: 0
  Fold Change of metabolite sugar-phosphate: 0
  Fold Change of metabolite thiamine: 0
  Fold Change of metabolite thymine: 0
  Fold Change of metabolite tryptophan: 0
Platform pLC, p-Value 7.53474E−05
  Fold Change of metabolite nicotinic acid: −0.9989
